Results as given in patent publication US20080131432A1, “Method of treating the chemotoxic effects of chemotherapeutic drugs on brain tissue” (University of Kentucky Research Foundation, priority 2005, published 2008).
Entries after “also recorded” stand apart in the source; their conditions may differ.

Assays:
[1] = test system: TNF α; experiment: TNF α levels in serum (mouse TNF-α ELISA); format: in vivo
Experimental: Mice were treated with 20 mg/kg ADR or saline as control. Blood samples were collected at 1, 3, 6, 9, 24 hours and allowed to clot at 2-8° C. overnight. Serum samples were used to measure TNF α levels, according to the mouse enzyme-linked immunosorbent assay following the manufacturers' instructions (mouse TNF-α/TNFSF1A immunoassay, R&D Systems, Minneapolis, MN). The TNF α concentration in the sample was calculated from a recombinant mouse TNF α standard curve. The minimum detection limit is typically less than 5.1 pg/mL.
8-week-old male B6C3 mice (25-30 g) were kept under standard conditions. Mice were injected with a single intraperitoneal (i.p.) treatment with adriamycin (doxorubicin hydrochloride, 20 mg/kg), TNF-α, anti-mouse TNF-antibody (40 ng/kg), dipropylenetriamine NONOate (DPTA NONOate, […]), lipopolysaccharide (LPS 1 mg/kg), NG-nitro-L-arginine-methyl esther (L-NAME, 10 mg/kg) or pre-immune IgG.
Mice were treated with 20 mg/kg ADR, TNF-α, anti-mouse TNF-antibody, dipropylenetriamine NONOate, lipopolysaccharide, NG-nitro-L-arginine-methyl esther or pre-immune IgG, as well as saline as control. Blood samples were collected at 3 hours after ADR treatment and allowed to clot at 2-8° C. overnight. Serum samples were used to measure TNF levels, according to the mouse enzyme-linked immunosorbent assay following the manufacturers' instructions (mouse TNF-α/TNFSF1A immunoassay, R&D Systems, Minneapolis, Minn.). The TNF concentration in the sample was calculated from a recombinant mouse TNF standard curve. The minimum detection limit is typically less than 5.1 pg/mL.

[2] = test system: mitochondrial respiration complex I; experiment: Brain mitochondrial respiration, complex I (pyruvate + malate), respiration control ratio; conditions: iNOSKO mice, 3 hours after treatment
Experimental: Mice were perfused via cardiac puncture with cold mitochondrial isolation buffer, the brain promptly removed, the cerebellum dissected away, and mitochondria immediately isolated from the freshly brain by a modification of the method described by Mattiazzi et al. (2002). Brain mitochondria were isolated in cold mitochondrial isolation buffer, containing 0.07 M sucrose, 0.22 M mannitol, 20 mM HEPES, 1 mM EGTA, and 1% bovine serum albumin, pH 7.2. Tissues were homogenized with a Dounce homogenizer and centrifuged at 1,500×g at 4° C. for 5 minutes before transferring the supernatant. The pellets were resuspended and centrifuged at 1,500×g at 4° C. for 5 minutes. The supernatants were combined and centrifuged at 13,500×g at 4° C. for 10 minutes. Mitochondrial pellets were washed twice and finally resuspended in 50-100 μL cold isolation buffer. Protein concentration of isolated mitochondria was determined by the Bradford assay (Bradford, 1976). The final protein concentration was 20-40 mg/ml.
Mitochondrial respiration was determined using Clark-type polarographic oxygen sensors (Hansatech Instruments, Kings Lynn, Norfolk, UK) to measure the rate of oxygen consumption. Freshly isolated mitochondria were suspended in respiration buffer at a concentration of 0.5 mg mitochondrial protein per mL of respiration buffer, which consists of 0.25 M sucrose, 50 mM HEPES, 1 mM EGTA, 10 mM KH2PO4, and 2 mM MgCl2, pH 7.4. Oxygen consumption was measured with either pyruvate (10 mM) plus malate (10 mM) or succinate (10 mM) as substrates for respiration from complex I or complex II in the absence of exogenous ADP (state II) and after addition of 300 mM ADP (state III respiration). Rotenone (5 μM) was added to the reaction to inhibit respiration from complex I when succinate was used as the substrate. […] FCCP (1 μM), an uncoupling agent, was added as a control of respiration. Respiration control ratios (RCR) were calculated as the ratios of state III and state II respiration as described previously by Estabrook (1967). The unit for state II rate and state III rate is nmole/min/mg protein.
Mice were perfused via cardiac puncture with cold mitochondrial isolation buffer, the brain promptly removed, the cerebellum dissected away, and mitochondria immediately isolated from the freshly brain by a modification of the method described by Mattiazzi et al. (2002). Brain mitochondria were isolated in cold mitochondrial isolation buffer, containing 0.07 M sucrose, 0.22 M mannitol, 20 mM HEPES, 1 mM EGTA, and 1% bovine serum albumin, pH 7.2. Tissues were homogenized with a Dounce homogenizer and centrifuged at 1,500×g at 4° C. for 3 minutes before transferring the supernatant fluid. The pellets were resuspended and centrifuged at 1,500×g at 4° C. for 3 minutes. The supernatant fluids were combined and centrifuged at 1,500×g at 4° C. for 3 minutes. These supernatant fluids were then centrifuged at 13,500×g at 4° C. for 10 minutes. Mitochondrial pellets were washed twice and finally resuspended in 50-100 μL cold isolation buffer. Protein concentration of isolated mitochondria was determined by the Bradford assay (Bradford, 1976).
Mitochondrial respiration was determined using Clark-type polarographic oxygen sensors (Hansatech Instruments, UK) to measure the rate of oxygen consumption. Freshly-isolated mitochondria were suspended in respiration buffer at a concentration of 0.5 mg mitochondrial protein/mL respiration buffer, which consisted of 0.25 M sucrose, 50 mM HEPES, 1 mM EGTA, 10 mM KH2PO4, 2 mM MgCl2 and 0.2% BSA, pH 7.4. Oxygen consumption was measured with either pyruvate (10 mM) or pyruvate plus malate (10 mM) as substrates for respiration from complex I, in the absence of exogenous ADP (state II), and after addition of 300 mM ADP (state III respiration). […] FCCP (1 μM), an uncoupling agent, was added as a control respiration. Respiration control ratios (RCR) were calculated as the ratios of state III and state II respiration.

[3] = test system: MnSOD; conditions: wild-type mice
[4] = test system: iNOS mRNA; experiment: iNOS mRNA expression in brain tissues (RT-PCR); format: in vivo, mouse; conditions: wild-type mice, 3 hours after treatment, vs saline controls
Experimental: At 3 hours after treatment, mice were anesthetized and perfused via cardiac puncture with 0.1 M PBS, pH 7.4. The MRNA was isolated using the Micro-FastTrack 2.0 Kit (Invitrogen, Groningen, Netherlands) according to the manufacturer's instructions. The purified MRNA (5 μg) was subjected to reverse-transcription into first strand cDNA in each 20 μL of reaction mixture using the SuperScript III First-Strand Synthesis System for RT-PCR (Invitrogen) according to the manufacturer's instruction. A 25 μL PCR reaction contained 5 μL first strand cDNA, 0.1 U Taq DNA polymerase (Invitrogen), 10 mM 10×PCR buffer, 1.5 mM MgCl2, 2.5 mM dNTP and 10 pmol of each specific primer. PCR samples were subjected to the following conditions: 35 cycles for iNOS (94° C.: 1 minute; 65° C.: 1 minute; 72° C.: 1 minute), 32 cycles for β-actin (94° C.: […]; 55° C.: 30 s; 72° C.: 10 minutes), on a thermocycle (Perkin-Elmer). The primers with the target gene sequences were synthesized by Invitrogen. The primer sequence iNOS was 5′-CTGATGGTCAAGATCCAG-A-GGTCT-3′ (forward) and 5′-[…]-CTCT-3′(reverse), and the primer for β-actin was 5′-TGTTAC-CAACTGGGACGACA-3′ (forward) and 5′-CTGGGTCATCTT-TTCACCGT-3′ (reverse). After amplification, PCR products were subjected to 1% agarose gel electrophoresis, and visualized by ethidium bromide staining. The relative density of bands was analyzed under ultraviolet light (Bio-Rad). Experiments were repeated three times for reproducibility.

NCCCN(CCCN)/[N+]([O-])=N/O [DPTA NONOate, dipropylenetriamine NONOate]
TNF-α level in serum (circulating TNF-α) ([1]; iNOSKO mice, 3 hours after treatment): did not lead to changes; also recorded: had no effect
Brain mitochondrial respiration complex I (RCR) [2]: significantly lowered; also recorded: causes mitochondrial dysfunction

COC(=O)[C@@H](N)CCCNC(=N)N[N+](=O)[O-] [L-NAME, NG-nitro-L-arginine-methyl esther]
MnSOD activity in brain vs saline- or ADR-treated mice ([3]; L-NAME 10 mg/kg i.p.): led to increased MnSOD activity
Effect on ADR-induced MnSOD inactivation ([3]; L-NAME with ADR): prevented MnSOD inactivation

TNF-α
TNF α level in serum (circulating TNF α) ([1]; wild-type mice, 3 hours after single i.p. treatment, vs saline control): increased
iNOS mRNA levels in brain tissues [4]: significantly increased

lipopolysaccharide [LPS]
iNOS mRNA levels in brain tissues [4]: significantly increased
